From PubChem BioAssay (NCI)
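Test compounds were applied to cells in 96-well plates for 48 hours at 5 doses. GI50: concentration for 50% inhibition of growth. TGI is the concentration that stops growth completely.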

What was measured:
Test in all cases: DTP human tumour cell line panel, 48 h
[1] = test system: T-47D breast
[2] = test system: TK-10 renal
[3] = test system: COLO 205 colon
[4] = test system: M14 melanoma
[5] = test system: UACC-62 melanoma
[6] = test system: EKVX NSCLC
[7] = test system: PC-3 prostate
[8] = test system: SR leukemia
[9] = test system: K-562 leukemia
[10] = test system: RXF 393 renal
[11] = test system: NCI/ADR-RES ovarian
[12] = test system: OVCAR-4 ovarian
[13] = test system: HCT-116 colon
[14] = test system: HS 578T breast
[15] = test system: UO-31 renal
[16] = test system: DU-145 prostate
[17] = test system: HOP-92 NSCLC
[18] = test system: CAKI-1 renal
[19] = test system: UACC-257 melanoma
[20] = test system: HCC-2998 colon
[21] = test system: MDA-MB-435
[22] = test system: NCI-H226 lung
[23] = test system: SF-268 CNS
[24] = test system: LOX IMVI melanoma
[25] = test system: U251 CNS
[26] = test system: MOLT-4 leukemia
[27] = test system: MDA-MB-231 breast
[28] = test system: ACHN renal
[29] = test system: CCRF-CEM leukemia
[30] = test system: NCI-H23 lung
[31] = test system: OVCAR-8 ovarian
[32] = test system: SF-539 CNS
[33] = test system: OVCAR-5 ovarian
[34] = test system: SNB-19 CNS
[35] = test system: A549 NSCLC
[36] = test system: A498 renal
[37] = test system: NCI-H522 lung
[38] = test system: HCT-15 colon
[39] = test system: OVCAR-3 ovarian
[40] = test system: MCF7 breast
[41] = test system: SNB-75 CNS
[42] = test system: HT29 colon
[43] = test system: KM12 colon
[44] = test system: HL-60(TB) leukemia
[45] = test system: SK-MEL-5 melanoma
[46] = test system: SN12C renal
[47] = test system: SK-MEL-28 melanoma
[48] = test system: HOP-62 NSCLC
[49] = test system: SF-295 CNS
[50] = test system: MALME-3M melanoma
[51] = test system: 786-0 renal
[52] = test system: SK-MEL-2 melanoma
[53] = test system: SW-620 colon
[54] = test system: RPMI-8226 leukemia
[55] = test system: IGROV1 ovarian
[56] = test system: BT-549 breast
[57] = test system: SK-OV-3 ovarian
[58] = test system: NCI-H460 lung

## NC1CCC(N[C@@H]2C[C@H]2c2ccccc2)CC1 (stereo partly specified)
[1]
  GI50: > 100 µM
  TGI: > 100 µM
[2]
  GI50: > 100 µM
  TGI: > 100 µM
[3]
  GI50: 73.4 µM
  TGI: > 100 µM
[4]
  GI50: > 100 µM
  TGI: > 100 µM
[5]
  GI50: 33.6 µM
  TGI: > 100 µM
[6]
  GI50: > 100 µM
  TGI: > 100 µM
[7]
  GI50: 70.8 µM
  TGI: > 100 µM
[8]
  GI50: 19.9 µM
  TGI: > 100 µM
[9]
  GI50: 29.9 µM
  TGI: > 100 µM
[10]
  GI50: 59.2 µM
  TGI: > 100 µM
[11]
  GI50: > 100 µM
  TGI: > 100 µM
[12]
  GI50: > 100 µM
  TGI: > 100 µM
[13]
  GI50: > 100 µM
  TGI: > 100 µM
[14]
  GI50: > 100 µM
  TGI: > 100 µM
[15]
  GI50: 67.4 µM
  TGI: > 100 µM
[16]
  GI50: > 100 µM
  TGI: > 100 µM
[17]
  GI50: 5.47 µM
  TGI: > 100 µM
[18]
  GI50: 32 µM
  TGI: > 100 µM
[19]
  GI50: > 100 µM
  TGI: > 100 µM
[20]
  GI50: > 100 µM
  TGI: > 100 µM
[21]
  GI50: 48.4 µM
  TGI: > 100 µM
[22]
  GI50: > 100 µM
  TGI: > 100 µM
[23]
  GI50: > 100 µM
  TGI: > 100 µM
[24]
  GI50: 69.6 µM
  TGI: > 100 µM
[25]
  GI50: > 100 µM
  TGI: > 100 µM
[26]
  GI50: 60 µM
  TGI: > 100 µM
[27]
  GI50: 23 µM
  TGI: > 100 µM
[28]
  GI50: > 100 µM
  TGI: > 100 µM
[29]
  GI50: 82.8 µM
  TGI: > 100 µM
[30]
  GI50: > 100 µM
  TGI: > 100 µM
[31]
  GI50: > 100 µM
  TGI: > 100 µM
[32]
  GI50: 15.3 µM
  TGI: 52 µM
[33]
  GI50: > 100 µM
  TGI: > 100 µM
[34]
  GI50: > 100 µM
  TGI: > 100 µM
[35]
  GI50: > 100 µM
  TGI: > 100 µM
[36]
  GI50: 21.4 µM
  TGI: > 100 µM
[37]
  GI50: > 100 µM
  TGI: > 100 µM
[38]
  GI50: 74.4 µM
  TGI: > 100 µM
[39]
  GI50: > 100 µM
  TGI: > 100 µM
[40]
  GI50: > 100 µM
  TGI: > 100 µM
[41]
  GI50: 8.89 µM
  TGI: > 100 µM
[42]
  GI50: 40.1 µM
  TGI: > 100 µM
[43]
  GI50: > 100 µM
  TGI: > 100 µM
[44]
  GI50: > 100 µM
  TGI: > 100 µM
[45]
  GI50: > 100 µM
  TGI: > 100 µM
[46]
  GI50: > 100 µM
  TGI: > 100 µM
[47]
  GI50: > 100 µM
  TGI: > 100 µM
[48]
  GI50: 95.4 µM
  TGI: > 100 µM
[49]
  GI50: > 100 µM
  TGI: > 100 µM
[50]
  GI50: 21.1 µM
  TGI: 84.7 µM
[51]
  GI50: > 100 µM
  TGI: > 100 µM
[52]
  GI50: > 100 µM
  TGI: > 100 µM
[53]
  GI50: > 100 µM
  TGI: > 100 µM
[54]
  GI50: 41.8 µM
  TGI: > 100 µM
[55]
  GI50: 92.5 µM
  TGI: > 100 µM
[56]
  GI50: > 100 µM
  TGI: > 100 µM
[57]
  GI50: > 100 µM
  TGI: > 100 µM
[58]
  GI50: > 100 µM
  TGI: > 100 µM
